Source: US20220280594A1, “APPLICATION OF POLYPEPTIDE OR DERIVATIVE THEREOF” (CHENGDU HUITAI BIOMEDICINE CO., LTD., priority 2019, published 2022)
Ends that are not written are not given here. PEG = not defined here

Legend:
[1] = system: human liver cancer cells (HepG2); assay: scratch assay, migration of HepG2 cells; assay type: cell-based; details: HepG2, 10 μM, 48 hours; control group 71.01 ± 6.63
How it was run: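 HepG2 monolayers scratched, then cultured 48 h in 2% FBS medium with test polypeptides at 10 μM versus PBS control, triplicate wells. Migration rate (%) computed from original versus current scratch width in images.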

[2] = system: human breast cancer cells (MDA-MB-231); assay: scratch assay, migration of MDA-MB-231 cells; assay type: cell-based; details: MDA-MB-231, 10 μM, 48 hours; control group 36.19 ± 5.15
How it was run: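 MDA-MB-231 monolayers (1-2×10^5 cells/well) were scratched, then kept 48 h in medium with 2% FBS containing polypeptide at 10 μM, with a PBS control, in triplicate wells. Migration rate (%) was taken from scratch width: (original − current)/original ×100.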

[3] = system: human colon cancer cells (HCT-116); assay: scratch assay, migration of HCT-116 cells; assay type: cell-based; details: HCT-116, 10 μM, 48 hours; control group 47.78 ± 6.07
How it was run: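 Confluent HCT-116 monolayers were scratched, washed and cultured 48 h in 2% FBS medium with peptide at 10 μM versus PBS control, triplicate wells. Migration rate (%) = (original minus current scratch width)/original width × 100, from at least 3 images per well.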

[4] = system: human breast cancer cells (MDA-MB-453); assay: scratch assay, migration of MDA-MB-453 cells; assay type: cell-based; details: MDA-MB-453, 10 μM, 48 hours; control group 32.42 ± 2.04
How it was run: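 Confluent MDA-MB-453 monolayers were scratched, then treated with peptide at 10 μM in 2% FBS medium for 48 h, with a PBS control and triplicate wells. Migration rate (%) was taken as (original − current scratch width)/original width ×100 from images.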

[5] = system: human non-small cell lung cancer cells (A549); assay: scratch assay, migration of A549 cells; assay type: cell-based; details: A549, 10 μM, 48 hours; control group 75.31 ± 8.19
How it was run: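 Confluent A549 monolayers in 24-well plates were scratched, washed with PBS, then cultured 48 h in 2% FBS medium with peptide at 10 μM or PBS control, triplicate wells. Scratch width measured from images; migration rate (%) = (original − current width)/original width × 100.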

[6] = system: human pancreatic cancer cells (PANC-1); assay: transwell migration assay, PANC-1 cells; assay type: cell-based; details: PANC-1 transwell migration, 10 μM, 24 hours; control group 360 ± 60
How it was run: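 Serum-free PANC-1 cells placed in the upper transwell chamber with complete medium below; after 4-5 h, peptide added to the upper chamber at a final 10 μM. Migration ran 24 h at 37 °C; cells on the membrane underside were methanol-fixed, crystal violet-stained and counted by microscopy.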

[7] = system: human breast cancer cells (MCF-7); assay: scratch assay, migration of MCF-7 cells; assay type: cell-based; details: MCF-7, 10 μM, 48 hours; control group 30.97 ± 1.79
How it was run: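 MCF-7 monolayers scratched, then cultured 48 hours in 2% FBS medium with test peptide at 10 μM versus PBS control, triplicate wells. Migration rate (%) = (original − current scratch width)/original width × 100, measured from images.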

[8] = system: human prostate cancer cells (22RV1); assay: scratch assay, migration of 22RV1 cells; assay type: cell-based; details: 22RV1, 10 μM, 48 hours; control group 25.41 ± 5.01
How it was run: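 22RV1 monolayers (seeded 1-2×10^5 cells/well) were scratched, washed, then given 2% FBS medium with 10 μM polypeptide or PBS, triplicate wells, for 48 h. Migration rate (%) = (original − current scratch width)/original width ×100, from ≥3 images per well.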

[9] = system: human lung cancer cells (A549) subcutaneous xenograft; assay: lung cancer subcutaneous xenograft animal model, intravenous injection; assay type: in vivo, mice (BALB/c-nu/nu); details: intravenous 60 mg/kg once every other day, 20 days; for Weight of tumor (g) (mean ± SD): control 2.53 ± 0.17; for Volume of tumor (mm^3) (mean ± SD): control 3373.26 ± 581.44
How it was run: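 Female BALB/c-nu/nu mice (4-6 weeks) inoculated subcutaneously with ~2×10^6 A549 cells; grouped once tumours exceeded 100 mm^3. Peptides given intravenously at 60 mg/kg for 20 days versus model control. Tumour weight and volume measured at dissection; body weight recorded every other day.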

Substance | Migration rate (%) (mean ± SD, P) [1] | Migration rate (%) (mean ± SD, P) [2] | Migration rate (%) (mean ± SD, P) [3] | Migration rate (%) (mean ± SD, P) [4] | Migration rate (%) (mean ± SD, P) [5] | Number of cells (mean ± SD, P), migrated cells [6] | Migration rate (%) (mean ± SD, P) [7] | Migration rate (%) (mean ± SD, P) [8] | Weight of tumor (g) (mean ± SD) [9] | Volume of tumor (mm^3) (mean ± SD) [9]
N23: SEQ ID NO: 1 with substitution A7R, deletion of position 11 and of positions 15-18 (YRVRFLRKENTQDAED) | 17.22 ± 7.12,*** % | 14.39 ± 2.33,** % | 13.08 ± 2.64,*** % | 18.2 ± 3.53,** % | 26.03 ± 4.21,*** % | 200 ± 14,*** | 10.20 ± 2.86,** % | 5.7 ± 3.23,** % | 0.65 ± 0.17 | 993.11 ± 298.65
N2: SEQ ID NO: 1 with deletion of one amino acid (position 18) at the carboxyl terminal (YRVRFLAKENVTQDAED) | 13.05 ± 6.50,*** % | 20.92 ± 2.16,* % | 23.42 ± 6.12,** % | 12.96 ± 3.13,** % | 47.79 ± 3.12,** % | 221 ± 35,** | 12.32 ± 2.26,** % | 6.48 ± 2.97,** % | 0.6 ± 0.28 | 1297.28 ± 359.77
N27: SEQ ID NO: 1 with addition of one amino acid at the carboxyl terminal and PEG modification at the carboxyl terminal (YRVRFLAKENVTQDAEDNC-{PEG}; reading uncertain) | 39.99 ± 3.19,** % | 9.62 ± 3.01,*** % | 24.14 ± 3.00,** % | 21.24 ± 3.73,* % | 37.20 ± 6.23,** % | 143 ± 25,*** | 8.40 ± 2.44,** % | 14.76 ± 2.79,* % | 1.14 ± 0.23 | 1402.37 ± 405.66
N39: SEQ ID NO: 1 with addition of two amino acids and PEG modification at the carboxyl terminal (YRVRFLAKENVTQDAEDNTC-{PEG}; reading uncertain) | 15.73 ± 6.79,*** % | 19.08 ± 3.17,* % | 4.29 ± 2.88,*** % | 11.02 ± 6.8,** % | 56.39 ± 6.30,* % | 262 ± 13,* | 7.74 ± 2.46,** % | 4.21 ± 2.81,** % | 0.98 ± 0.3 | 918.84 ± 288.77
N31: SEQ ID NO: 1 with deletion of positions 3, 4, 11 and 15-18 and PEG modification at the carboxyl terminal (YRFLAKENTQD-{PEG}; reading uncertain) | 13.64 ± 7.59,*** % | 18.7 ± 3.05,* % | 7.39 ± 2.06,*** % | 10.49 ± 3.13,*** % | 24.44 ± 8.15,** % | 217 ± 40,** | 9.27 ± 2.23,** % | 12.40 ± 2.24,* % | 0.62 ± 0.2 | 1439.74 ± 546.27
N9: SEQ ID NO: 1 with deletion of positions 15-18 and PEG modification at the amino terminal ({PEG}-YRVRFLAKENVTQD; reading uncertain) | 35.11 ± 5.16,** % | 15.96 ± 3.92,* % | 25.96 ± 3.84,** % | 7.19 ± 2.38,*** % | 56.92 ± 4.49,** % | 148 ± 16,*** | 5.28 ± 2.11,*** % | 14.84 ± 2.96,* % | 0.82 ± 0.29 | 1241.9 ± 388.92
N26: SEQ ID NO: 1 with substitution A15R, addition of one amino acid at the amino terminal and one at the carboxyl terminal (FYRVRFLAKENVTQDREDNC) | 16.86 ± 7.90,*** % | 19.02 ± 5.06,* % | 9.81 ± 2.92,*** % | 6.19 ± 1.42,*** % | 25.04 ± 6.01,** % | 119 ± 17,*** | 10.43 ± 3.34,** % | 11.42 ± 2.08,* % | 0.57 ± 0.22 | 1163.91 ± 457.09
N25: SEQ ID NO: 1 with substitution N18R and addition of two amino acids at the carboxyl terminal (YRVRFLAKENVTQDAEDRCT) | 14.22 ± 7.10,*** % | 12.93 ± 4.38,** % | 18.70 ± 2.39,** % | 21.05 ± 2.53,* % | 34.66 ± 7.73,** % | 217 ± 31,** | 9.16 ± 2.51,** % | 13.02 ± 2.27,* % | 0.69 ± 0.21 | 1169.92 ± 572.47
N32: SEQ ID NO: 1 with deletion of positions 1-3, addition of one amino acid and PEG modification at the carboxyl terminal (RFLAKENVTQDAEDNC-{PEG}; reading uncertain) | 15.49 ± 8.35,*** % | 13.33 ± 3.83,** % | 8.17 ± 1.07,*** % | 17.55 ± 3.48,** % | 28.06 ± 8.55,** % | 219 ± 13,*** | 14.18 ± 2.82,** % | 8.68 ± 1.66,** % | 0.88 ± 0.38 | 1630.6 ± 424.84
N13: SEQ ID NO: 1 with deletion of positions 15-18 and positions 1-5 (LAKENVTQD) | 45.91 ± 4.70,** % | 7.45 ± 2.6,*** % | 12.19 ± 3.22,*** % | 9.28 ± 2.43,*** % | 19.37 ± 9.40,** % | 255 ± 24,* | 13.79 ± 2.05,** % | 9.77 ± 3.66,* % | 0.8 ± 0.17 | 1320.14 ± 147.22
